3 compounds from patent publication US5387518A, “Alkaline protease having stability in solution with anionic surfactant, method for producing the same, use thereof and microorganism producing the same” (priority 1991, dated 1995) can be followed below.

The assay relates to alkaline protease API-25 produced by Bacillus sp. SD523 (Bacillus firmus, FERM BP-3774). The format is biochemical. As to the method: To 500 μl of a 50 mM Atkins-Pantin phosphate buffer solution (pH 10) is added 50 μl of an enzyme solution diluted appropriately, and the resulting mixture is preincubated at 30° C. for 3 to 5 minutes. Then, 500 μl of a 2% Hammerstein casein solution (pH 10) is added to the solution, and after 10 minutes 2 ml of TCA solution (0.132M TCA, adjusted to pH 4 with an acetate buffer solution) is added thereto to stop the reaction. After leaving it to stand at 30° C. for 10~15 minutes, the mixture is filtered using No. 2 filter paper (produced by Toyo Filter Paper Co., Ltd.). To 1 ml of the filtrate solution are added 5 ml of 0.4M sodium carbonate and 1 ml of 6-fold diluted phenol reagent. After leaving the mixture to stand at 30° C. for 20 minutes for color development, its optical density is measured at 660 nm.
Influence of various inhibitors against the enzyme of the present invention is examined under the conditions and by the method described below.
Enzyme solutions containing the enzyme of the present invention in a concentration of 20 nkatal/ml are prepared using a 50 mM borate buffer solution (pH 10), respectively. Various inhibitors in concentrations as shown in Table 11 are added to the enzyme solutions, respectively. After incubating the resulting mixtures at 30° C. for 30 minutes, the residual activity of the enzyme in the mixtures is measured. Results obtained are shown in Table 11, in which the activity is expressed in terms of relative activity assuming that the activity in the absence of inhibitors is 100%.

[1] abbreviates: inhibitor 1 mM, enzyme 20 nkatal/ml in 50 mM borate buffer pH 10, incubated 30° C. for 30 minutes, activity in the absence of inhibitors = 100%.
Setting [2] is: inhibitor 10 mM, enzyme 20 nkatal/ml in 50 mM borate buffer pH 10, incubated 30° C. for 30 minutes, activity in the absence of inhibitors = 100%.

Like-named read-outs stand apart in the source and are kept apart here.

In the case of `O=C(O)CN(CCN(CC(=O)O)CC(=O)O)CC(=O)O` [EDTA, Ethylenediaminetetraacetic acid], the “Residual Activity (%)” value (pH 10) is 104%.

Turning to `O=C(O)c1cc[c]([Hg][Cl])cc1` [PCMB, pChloromercuribenzoic acid], the “Residual Activity (%)” value runs as follows: under setting [1], 98%; under setting [2], 90%.

`O=S(=O)(F)Cc1ccccc1` [PMSF, Phenylmethanesulfonyl fluoride]: the “Residual Activity (%)” value under setting [1] came to 31% and the “Residual Activity (%)” value under setting [2] amounted to 0.7%. Besides, the “Inhibition of the enzyme (in words)” value (summary of Table 11, reveals that the enzyme is a serine protease) is “inhibited by phenylmethanesulfonyl fluoride (PMSF) considerably”.
